Measurements reported in US8273774B2, “Phenoxypyridinylamide compounds” (AstraZeneca AB, priority 2008, dated 2012).

Target: recombinant Human Phosphodiesterase B2 (PDE4B2) (Homo sapiens, UniProt Q07343)
Assay: Human Phosphodiesterase B2 Radiometric Assay
Assay type: biochemical
Conditions: 0.1 μg/mL recombinant PDE4B2; preincubated at 30 C for 30 min; [3H]cyclic AMP 8 nM, stopped after 20 min; yttrium silicate SPA beads; read-out: PDE4B2 pIC50 (converted)
Summary of the method: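 SPA read-out: product 5′AMP binds yttrium silicate beads (added with 18 mM ZnSO4 after 20 min) in preference to [3H]cAMP substrate, given at 8 nM final.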

Sequence of recombinant Human Phosphodiesterase B2 (PDE4B2) (Q07343 1-564 isoform Q07343-2): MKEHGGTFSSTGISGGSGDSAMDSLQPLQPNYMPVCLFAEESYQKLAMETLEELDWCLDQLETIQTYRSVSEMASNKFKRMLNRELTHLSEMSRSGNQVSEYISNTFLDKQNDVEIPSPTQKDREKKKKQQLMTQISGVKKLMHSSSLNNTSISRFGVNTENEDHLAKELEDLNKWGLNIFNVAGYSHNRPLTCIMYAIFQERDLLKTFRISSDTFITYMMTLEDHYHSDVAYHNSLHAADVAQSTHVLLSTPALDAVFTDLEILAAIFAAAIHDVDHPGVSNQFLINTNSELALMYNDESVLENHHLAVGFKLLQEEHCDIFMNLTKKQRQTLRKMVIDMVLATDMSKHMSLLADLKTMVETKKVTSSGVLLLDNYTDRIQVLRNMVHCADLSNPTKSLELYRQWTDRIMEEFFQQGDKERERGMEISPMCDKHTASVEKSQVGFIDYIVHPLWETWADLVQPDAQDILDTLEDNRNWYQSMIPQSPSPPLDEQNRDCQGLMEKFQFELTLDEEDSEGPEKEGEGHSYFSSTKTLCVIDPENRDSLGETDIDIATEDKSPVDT

Row | SMILES | IC50 [nM]
1 | Cc1nc(C(=O)N[C@H]2CC[C@@H](NC(=O)c3cc(F)cnc3Oc3cccc(-c4ccc(CN(C)C)cc4CN4CCOCC4)c3)CC2)cs1 [Example 119, N-((1s,4s)-4-(2-(4′-((dimethylamino)methyl)-2′-(morpholinomethyl)biphenyl-3-yloxy)-5-fluoronicotinamido)cyclohexyl)-2-methylthiazole-4-carboxamide] | 0.0794
2 | Cc1cc(C(=O)N[C@H]2CC[C@@H](NC(=O)c3cc(F)cnc3Oc3cccc(-c4cccc(CN5C[C@@H](C)N[C@@H](C)C5)c4O)c3)CC2)nn1C [Example 78, N-((1s,4s)-4-(1,5-dimethyl-1H-pyrazole-3-carboxamido)cyclohexyl)-2-(3′-(((3R,5S)-3,5-dimethylpiperazin-1-yl)methyl)-2′-hydroxybiphenyl-3-yloxy)-5-fluoronicotinamide] | 0.0794
3 | C[C@@H]1CN(CCc2ccc(-c3cccc(Oc4ncc(F)cc4C(=O)N[C@H]4CC[C@@H](NC(=O)c5cnc6ccccc6n5)CC4)c3)cc2)C[C@H](C)N1 [Example 99, N-((1s,4s)-4-(2-(4′-(2-((3S,5R)-3,5-dimethylpiperazin-1-yl)ethyl)biphenyl-3-yloxy)-5-fluoronicotinamido)cyclohexyl)quinoxaline-2-carboxamide] | 0.0794
4 | Cc1cc(C(=O)N[C@H]2CC[C@@H](NC(=O)c3cc(F)cnc3Oc3cccc(-c4ccc(CCCNCCCO)cc4)c3)CC2)nn1C [Example 152, N-((1s,4s)-4-(1,5-dimethyl-1H-pyrazole-3-carboxamido)cyclohexyl)-5-fluoro-2-(4′-(3-(3-hydroxypropylamino)propyl)biphenyl-3-yloxy)nicotinamide] | 0.0398
5 | C[C@@H]1CN(Cc2ccc(-c3cccc(Oc4ncc(F)cc4C(=O)N[C@H]4CC[C@@H](NC(=O)c5cn6cc(F)ccc6n5)CC4)c3)c(CN3CCSCC3)c2)C[C@H](C)N1 [Example 169, N-((1s,4s)-4-(2-(4′-(((3S,5R)-3,5-Dimethylpiperazin-1-yl)methyl)-2′-(thiomorpholinomethyl)biphenyl-3-yloxy)-5-fluoronicotinamido)cyclohexyl)-6-fluoroimidazo[1,2-a]pyridine-2-carboxamide] | 0.02
6 | Cc1cc(C(=O)N[C@H]2CC[C@@H](NC(=O)c3cc(F)cnc3Oc3cccc(-c4ccc(CCCN5CCCC5)cc4)c3)CC2)nn1C [Example 79, N-((1s,4s)-4-(1,5-dimethyl-1H-pyrazole-3-carboxamido)cyclohexyl)-5-fluoro-2-(4′-(3-(pyrrolidin-1-yl)propyl)biphenyl-3-yloxy)nicotinamide] | 0.0316
7 | Cc1cccc2nc(C(=O)N[C@H]3CC[C@@H](NC(=O)c4cc(F)cnc4Oc4cccc(-c5ccc(CN6CCCOCC6)cc5)c4)CC3)cn12 [Example 46, N-((1s,4s)-4-(2-(4′-((1,4-oxazepan-4-yl)methyl)biphenyl-3-yloxy)-5-fluoronicotinamido)cyclohexyl)-5-methylimidazo[1,2-a]pyridine-2-carboxamide] | 0.126
8 | Cc1cccc2nc(C(=O)N[C@H]3CC[C@@H](NC(=O)c4cc(F)cnc4Oc4cccc(-c5ccc(CN6C[C@@H](C)N[C@@H](C)C6)cc5CN5CCOC[C@@H]5C)c4)CC3)cn12 [Example 175, N-((1s,4s)-4-(2-(4′-(((3S,5R)-3,5-Dimethylpiperazin-1-yl)methyl)-2′-(((S)-3-methylmorpholino)methyl)biphenyl-3-yloxy)-5-fluoronicotinamido)cyclohexyl)-5-methylimidazo[1,2-a]pyridine-2-carboxamide] | 0.02
9 | Cc1cccc2nc(C(=O)N[C@H]3CC[C@@H](NC(=O)c4cc(F)cnc4Oc4cccc(-c5ccc(CN6C[C@@H](C)N[C@@H](C)C6)cc5CN5CCOCC5)c4)CC3)cn12 [Example 123, N-((1s,4s)-4-(2-(4′-(((3S,5R)-3,5-dimethylpiperazin-1-yl)methyl)-2′-(morpholinomethyl)biphenyl-3-yloxy)-5-fluoronicotinamido)cyclohexyl)-5-methylimidazo[1,2-a]pyridine-2-carboxamide] | 0.0631
10 | COCc1nc(C(=O)N[C@H]2CC[C@@H](NC(=O)c3cc(F)cnc3Oc3cccc(-c4ccc(O)cc4CN4CCOCC4)c3)CC2)cs1 [Example 63, N-((1s,4s)-4-(5-fluoro-2-(4′-hydroxy-2′-(morpholinomethyl)biphenyl-3-yloxy)nicotinamido)cyclohexyl)-2-(methoxymethyl)thiazole-4-carboxamide] | 0.126

Next, values leading:

Row | IC50 [nM] | SMILES
11 | 0.1 | Cc1cccc2nc(C(=O)N[C@H]3CC[C@@H](NC(=O)c4cc(F)cnc4Oc4cccc(-c5ccc(CN(C)CCO)cc5)c4)CC3)cn12 [Example 51, N-((1s,4s)-4-(5-fluoro-2-(4′-(((2-hydroxyethyl)(methyl)amino)methyl)biphenyl-3-yloxy)nicotinamido)cyclohexyl)-5-methylimidazo[1,2-a]pyridine-2-carboxamide]
12 | 0.0501 | O=C(N[C@H]1CC[C@@H](NC(=O)c2cc(F)cnc2Oc2cccc(-c3ccc(O)cc3CN3CCSCC3)c2)CC1)c1cn2cc(F)ccc2n1 [Example 21, 6-fluoro-N-((1s,4s)-4-(5-fluoro-2-(4′-hydroxy-2′-(thiomorpholinomethyl)biphenyl-3-yloxy)nicotinamido)cyclohexyl)imidazo[1,2-a]pyridine-2-carboxamide]
13 | 0.0316 | Cc1csc(C(=O)N[C@H]2CC[C@@H](NC(=O)c3cc(F)cnc3Oc3cccc(-c4ccc(O)c(CN5C[C@@H](C)N[C@@H](C)C5)c4)c3)CC2)n1 [Example 88, N-((1s,4s)-4-(2-(3′-(((3S,5R)-3,5-dimethylpiperazin-1-yl)methyl)-4′-hydroxybiphenyl-3-yloxy)-5-fluoronicotinamido)cyclohexyl)-4-methylthiazole-2-carboxamide]
14 | 0.794 | O=C(N[C@H]1CC[C@@H](NC(=O)c2cc(F)cnc2Oc2cccc(-c3ccc(O)cc3CN3CCOCC3)c2)CC1)c1cccc(O)n1 [Example 40, N-((1s,4s)-4-(5-fluoro-2-(4′-hydroxy-2′-(morpholinomethyl)biphenyl-3-yloxy)nicotinamido)cyclohexyl)-6-hydroxypicolinamide]
15 | 0.0794 | CN1CCCN(CCc2ccc(-c3cccc(Oc4ncc(F)cc4C(=O)N[C@H]4CC[C@@H](NC(=O)c5cc6n(n5)CCCC6)CC4)c3)cc2)CC1 [Example 171, N-((1s,4s)-4-(5-Fluoro-2-(4′-(2-(4-methyl-1,4-diazepan-1-yl)ethyl)biphenyl-3-yloxy)nicotinamido)cyclohexyl)-4,5,6,7-tetrahydropyrazolo[1,5-a]pyridine-2-carboxamide]
16 | 0.1 | C[C@@H]1CN(CCCc2cccc(-c3cccc(Oc4ncc(F)cc4C(=O)N[C@H]4CC[C@@H](NC(=O)c5cc6n(n5)CCCC6)CC4)c3)c2)C[C@H](C)N1 [Example 174, N-((1s,4s)-4-(2-(3′-(3-((3S,5R)-3,5-Dimethylpiperazin-1-yl)propyl)biphenyl-3-yloxy)-5-fluoronicotinamido)cyclohexyl)-4,5,6,7-tetrahydropyrazolo[1,5-a]pyridine-2-carboxamide]
17 | 0.0794 | Cc1cc(C(=O)N[C@H]2CC[C@@H](NC(=O)c3cc(F)cnc3Oc3cccc(-c4ccc(CCCN5CCNCC5)cc4)c3)CC2)n[nH]1 [Example 157, 5-Fluoro-N-((1s,4s)-4-(5-methyl-1H-pyrazole-3-carboxamido)cyclohexyl)-2-(4′-(3-(piperazin-1-yl)propyl)biphenyl-3-yloxy)nicotinamide]
